Measurements taken from patent US11466024B2, “Bicylic compound acting as an inhibitor” (CHIA TAI TIANQING PHARMACEUTICAL GROUP CO., LTD., priority 2017, dated 2022).

Experiments:
[1] = target: T1, RORγ (Homo sapiens, UniProt P51449); assay: In vitro test for inhibitory activity on RORγ: luciferase reporter cells expressing chimeric Gal4-RORγ receptor; assay type: cell-based; details: Gal4 hybrid receptor luciferase reporter, HEK293, 24 hours incubation
T1 sequence (P51449 97-518): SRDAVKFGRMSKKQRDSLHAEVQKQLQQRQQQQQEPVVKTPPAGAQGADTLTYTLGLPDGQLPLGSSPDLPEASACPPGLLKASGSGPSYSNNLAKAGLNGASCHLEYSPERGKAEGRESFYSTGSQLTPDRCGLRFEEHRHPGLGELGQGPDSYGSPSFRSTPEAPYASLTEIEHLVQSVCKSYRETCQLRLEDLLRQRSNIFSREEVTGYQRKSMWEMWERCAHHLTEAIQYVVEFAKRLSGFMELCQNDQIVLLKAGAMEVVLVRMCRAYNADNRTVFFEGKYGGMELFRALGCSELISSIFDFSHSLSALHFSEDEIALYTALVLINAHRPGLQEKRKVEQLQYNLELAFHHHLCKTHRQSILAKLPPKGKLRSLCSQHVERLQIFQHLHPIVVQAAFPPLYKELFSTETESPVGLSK
Procedure: Reporter cells: Reporter cells expressing a chimeric RORγ receptor were used in this experiment. The chimeric RORγ receptor was a RORγ receptor formed by replacing the N-terminal DNA-binding domain of the natural RORγ protein with the DNA-binding domain of the yeast Gal4 protein. The luciferase reporter gene was located at the downstream of the Gal4 activating sequence (UAS).
Step 1: Reporter cells were prepared into a cell suspension using INDIGO's Cell Recovery Medium (CRM, containing 5% fetal bovine serum treated by activated carbon). The cell suspension was dispensed into a white 96-well culture plate in a volume of 100 μl/well.
Step 2: Eight concentration gradients were set for each test compound, and the test was conducted twice at each concentration. Prior to the experiment, the main stock solution of the test compound was serially diluted with DMSO, so as to formulate solutions with “1000×-concentration” relative to each of the final test concentrations. Subsequently, the compound was further diluted with the cell recovery medium (CRM, containing 5% fetal bovine serum treated by activated carbon), so as to formulate test working solutions with “2×-concentration”. As per a volume of 100 μl/well, the test working solutions were respectively added to the test wells in which the reporter cells were added in advance, so as to obtain the desired final test concentrations. The residual concentrations of DMSO in all test wells were 0.1%. The test plate was incubated in a cell incubator for 24 hours. Conditions of the incubator were set as follows: temperature: 37° C., 5% CO2, humidity: ˜85%.
Step 3: After 24 hours of incubation, the liquid in the culture plate was discarded, 100 μl of luciferase detection reagent was added to each test well, and then, the fluorescence intensity (Relative Luminescence Units, RLUs) in each well was read.
In this test, the reference compound ursolic acid was used as an internal standard of a positive compound to verify the inhibitory effect of the test compound on RORγ in reporter cells of a specific batch. The tests for the reference compound and the test compound were performed simultaneously, and the reference compound and the test compound were thus exposed to the same test reagent and environment. The reference compound group containing 0.1% DMSO as solvent was used as an internal standard of a positive compound, so as to determine the effect of the solvent DMSO on the test results and calculate the percentage reduction in RORγ activity.
The test data was managed and archived by Microsoft Excel, and mean±standard deviation (SD) of RLU, fold of reduction, inhibition rate, coefficient of variation (% CV) and Z factor were calculated. Coefficient of variation (% CV): 100×(SD/Ave. RLU); Fold of reduction for inverse agonist: [Ave. […]

[2] = tested on: MOG35-55-induced experimental autoimmune encephalomyelitis (EAE); assay: In vivo pharmacodynamic research on MOG35-55-induced experimental autoimmune encephalomyelitis (EAE) in mice; details: G4, 75 mg/kg p.o. b.i.d
Procedure: The day of immunization was recorded as day 0, and the subsequent days were marked sequentially. Mice were anesthetized with isoflurane, and 100 μl of the emulsion was administered via subcutaneous injection at three sites (the middle part between shoulder and back, and two sides of the tail that were close to the groin), namely, 33 μl of the emulsion for each site. 0 hour and 48 hours after the injection of the emulsion, 200 ng (i.e. 200 μl) of the PTX solution was intraperitoneal injected. Mice in the normal group were not required to be immunized.
After the immunization on day 0, the immunized mice were randomly divided into 3 groups with 10 mice in each group according to the body weights except for the mice in the normal group, the details were shown in Table 1. FTY720 served as a positive drug, and a dose of […] was an effective dose commonly used in the EAE model.
The first group was normal mice without any treatment; vehicle was administered to the second group; FTY720 was administered to the third group at a dose of 0.5 mg/kg once a day; and the compound of Example 1 was administered to the fourth group at a dose of 75 mg/kg twice a day. The administration lasted for 25 days in total. The volume of intragastric administration was 10 ml/kg.
The day when animals were immunized was day 0. Animal body weights were recorded three times a week from day 0 to day 10, and the body weights and clinical scores of the animals were closely observed and recorded daily from day 11.
The experimental data was expressed as mean±standard error of mean (Mean±SEM).
The area under the curve of clinical scores over time (i.e. “AUC of clinical scores” or “area under the curve of clinical scores”) was calculated by analyzing the curve of clinical scores for each animal in each group, and the inhibition rates of the remaining groups (G1, G3, and G4) relative to G2 (solvent control group) were calculated by the mean AUC of clinical scores among groups.

CCS(=O)(=O)c1ccc(CNC(=O)c2cc3c(s2)C(C(C)C)N(C[C@H]2CC[C@H](C(F)(F)F)CC2)C3)nc1 (single isomer, unassigned) [Example 1]
EC50 ([1]; Specific value of the concentration required for 50% inhibition (EC50) of RORγ): 15.8 nM | EC50 ([1]; Value of the concentration required for 50% Inhibition (EC50) of RORγ): < 100 nM | clinical scores of EAE mice ([2]; 25 days, FIG. 1): significantly reduced | inhibition rate of AUC of clinical scores relative to solvent control group ([2]; 25 days, p<0.0001, FIG. 2): 93.2% | morbidity of EAE ([2]; at day 19, stable till the end of the experiment, FIG. 3): 20% | body weights compared among groups ([2]; from the beginning to end, FIG. 4): the highest | body weight changes ([2]; significantly different from solvent control group, FIG. 4): kept increasing
